In patent publication US10688099B2, “Methods for modulating the amount of RNA transcripts” (PTC Therapeutics, Inc., priority 2013, dated 2020):

System: RNA isoforms in PNN 1-46 SMA type I patient-derived fibroblasts
Test: RNA Abundance Modulation (RNA isoform abundance, iFPM, HiSeq RNA sequencing)
Assay type: cell-based, human
Conditions: for RNA abundance modulation (effect on isoform fold increase): 24 hrs, PNN 1-46 fibroblasts
Procedure: Cells from a cell line of interest are cultured in conditions sufficient to yield the number of cells capable of generating enough RNA for subsequent sequencing steps. Cells from the tested cell line are contacted with a compound described herein.
To culture said cells, they are seeded, at appropriate concentrations in a volume of media in a cell culture container and incubated for 4, 5, 6, 7, 8, 9, 10, or more hours. A concentrated solution of compound in a vehicle (e.g., DMSO) is then added in sufficient volume to result in the intended final concentration of the compound, for example 100 nM, 500 nM, 1 μM, 5 μM, 10 μM, 15 μM, 20 μM, or more. The cells may also be treated with vehicle alone, as a control. A number of replicates of each concentration or control may be made (e.g., 2 replicates). The cells are then incubated at a constant temperature appropriate for cell culture of the particular cell line (e.g., 37° C.) for 6, 12, 18, 24, 48, or more hours. After incubation, the growth medium is removed and the cells are washed with the appropriate buffer (e.g., PBS). Cells are then removed from adherence to the cell culture container by treatment with a solution containing trypsin, and the trypsin subsequently quenched with the appropriate volume of buffer (e.g., DMEM-FBS). The cells are then pelleted with gentle centrifugation (e.g., ≤90×g centrifugal force) and resuspended in a buffer to lyse the cells for extraction of RNA. The cell lysates may then be frozen (e.g., at −80° C.) or, alternately, may immediately be used in a procedure to purify the RNA (e.g. by use of the RNEASY PLUS® minikit). The RNA from cell lysates is eluted in the appropriate volume of buffer (e.g., RNEASE-FREE H2O®). The resulting purified RNA may then be sequenced (e.g., using RNASeq) or analyzed using a human exon array (e.g., by GENECHIP® human exon array) to determine changes in the RNA levels in those cells treated with compound compared to those cells treated only with DMSO. The purified RNA may also be quantified by other methods known in the art.
Using the RNA data obtained from sequencing, exon array, or other methods, a statistical analysis can reveal changes in the RNA levels of compound-treated compared with control. For example, t-test p-values may be calculated for the data obtained through sequencing and exon array methods in order to compare compound-treated cells to those treated with the DMSO control. […] Analysis of the sequencing and exon array data may then also yield predictions about the cause of the aberrant amount of an RNA transcript in the cells (e.g., perturbation of RNA splicing, RNA transcription, or RNA stability). These predictions may be further confirmed by methods known in the art. For example, RT-PCR and RT-qPCR may be used to confirm the change in amount of RNA transcripts for one or more particular transcripts of interest.
Following the methods described above in Example 1, PNN 1-46 SMA type I patient-derived fibroblasts were treated with 300 nM or 3 μM Compounds 774 and 808 in 0.5% DMSO.
700,000 cells were seeded in 10 mL of medium (DMEM plus 10% FBS) in a T-75 flask. Cells were allowed to attach for at least 4 hrs, after which 50 μL of a 200× compound solution (100% DMSO) was added to each well, and the plate was incubated at 37° C. for 24 hrs.
At the end of the incubation period, the supernatant was removed and the cells where washed with PBS. TrypLE (Invitrogen) express solution was added (e.g. 1.5 mL per one T75 flask). The flasks were incubated for 3 to 5 min at 37° C. The trypsin was then quenched, e.g., by adding 10 mL DMEM-FBS.
Next, the cells were pelleted using gentle centrifugation without exceeding 90×g centrifugal force. The supernatant was removed and the cell pellet was re-suspended in 600 μL RLT buffer (the RLT buffer was supplemented with beta-mercaptoethanol according to the RNeasy protocol manual) by pipetting up and down until the pellet was completely dissolved […]

**Q.** Which “RNA abundance modulation (effect on isoform fold increase)” value (0.3 μM) does the source give for `CCc1nc(C)cn2nc(-c3cc(=O)n4cc(C5CCN(C)CC5)cc(C)c4n3)cc12` [Compound 774] here?
**A.** modulates RNA abundance

**Q.** And the “RNA abundance modulation (effect on isoform fold increase)” value (3 μM)?
**A.** modulates RNA abundance

**Q.** What about the “FC (x + 1)” value (TACC1 NM_006283, 3 μM) of the same molecule?
**A.** 1.1645

**Q.** And the “L2FC (x + 1)” value (TACC1 NM_006283, 3 μM)?
**A.** 0.220

**Q.** What about the “L2abs (Cpd-DMSO)” value (TACC1 NM_006283, 3 μM) of the same molecule?
**A.** 8.47

**Q.** What about the “abs (Cpd-DMSO)” value (TACC1 NM_006283, 3 μM) of the same molecule?
**A.** 354 iFPM

**Q.** What about the “amp FC (x + 1)” value (TACC1 NM_006283, 3 μM) of the same molecule?
**A.** 1.16

**Q.** What about the “ave Cpd” value (TACC1 NM_006283, 3 μM) of the same molecule?
**A.** 2506 iFPM

**Q.** What about the “FC (x + 1)” value (TAF2 NM_003184, 3 μM) of the same molecule?
**A.** 0.4533

**Q.** And the “L2FC (x + 1)” value (TAF2 NM_003184, 3 μM)?
**A.** −1.141

**Q.** And the “L2abs (Cpd-DMSO)” value (TAF2 NM_003184, 3 μM)?
**A.** 9.75

**Q.** And the “abs (Cpd-DMSO)” value (TAF2 NM_003184, 3 μM)?
**A.** 862 iFPM

**Q.** What about the “amp FC (x + 1)” value (TAF2 NM_003184, 3 μM) of the same molecule?
**A.** 2.21

**Q.** And the “ave Cpd” value (TAF2 NM_003184, 3 μM)?
**A.** 714 iFPM

**Q.** What about the “FC (x + 1)” value (TANC2 AJ278120, 3 μM) of the same molecule?
**A.** 1.0181

**Q.** What about the “L2FC (x + 1)” value (TANC2 AJ278120, 3 μM) of the same molecule?
**A.** 0.026

**Q.** What about the “L2abs (Cpd-DMSO)” value (TANC2 AJ278120, 3 μM) of the same molecule?
**A.** 1.28

**Q.** What about the “abs (Cpd-DMSO)” value (TANC2 AJ278120, 3 μM) of the same molecule?
**A.** 2 iFPM

**Q.** What about the “amp FC (x + 1)” value (TANC2 AJ278120, 3 μM) of the same molecule?
**A.** 1.02

**Q.** What about the “ave Cpd” value (TANC2 AJ278120, 3 μM) of the same molecule?
**A.** 136 iFPM

**Q.** What about the “FC (x + 1)” value (TANC2 AK001077, 3 μM) of the same molecule?
**A.** 4.5130

**Q.** What about the “L2FC (x + 1)” value (TANC2 AK001077, 3 μM) of the same molecule?
**A.** 2.174

**Q.** And the “L2abs (Cpd-DMSO)” value (TANC2 AK001077, 3 μM)?
**A.** 1.81

**Q.** And the “abs (Cpd-DMSO)” value (TANC2 AK001077, 3 μM)?
**A.** 4 iFPM

**Q.** And the “amp FC (x + 1)” value (TANC2 AK001077, 3 μM)?
**A.** 4.51

**Q.** And the “ave Cpd” value (TANC2 AK001077, 3 μM)?
**A.** 4 iFPM

**Q.** What about the “FC (x + 1)” value (TANC2 AK021886, 3 μM) of the same molecule?
**A.** 0.4015

**Q.** And the “L2FC (x + 1)” value (TANC2 AK021886, 3 μM)?
**A.** −1.317

**Q.** And the “L2abs (Cpd-DMSO)” value (TANC2 AK021886, 3 μM)?
**A.** 2.40

**Q.** And the “abs (Cpd-DMSO)” value (TANC2 AK021886, 3 μM)?
**A.** 5 iFPM

**Q.** And the “amp FC (x + 1)” value (TANC2 AK021886, 3 μM)?
**A.** 2.49

**Q.** And the “ave Cpd” value (TANC2 AK021886, 3 μM)?
**A.** 3 iFPM

**Q.** And the “FC (x + 1)” value (TANC2 BC144357, 3 μM)?
**A.** 0.3363

**Q.** And the “L2FC (x + 1)” value (TANC2 BC144357, 3 μM)?
**A.** −1.572

**Q.** And the “L2abs (Cpd-DMSO)” value (TANC2 BC144357, 3 μM)?
**A.** 8.29

**Q.** What about the “abs (Cpd-DMSO)” value (TANC2 BC144357, 3 μM) of the same molecule?
**A.** 313 iFPM

**Q.** What about the “amp FC (x + 1)” value (TANC2 BC144357, 3 μM) of the same molecule?
**A.** 2.97

**Q.** And the “ave Cpd” value (TANC2 BC144357, 3 μM)?
**A.** 158 iFPM

**Q.** And the “FC (x + 1)” value (TANC2 NM_025185, 3 μM)?
**A.** 1.0124

**Q.** What about the “L2FC (x + 1)” value (TANC2 NM_025185, 3 μM) of the same molecule?
**A.** 0.018

**Q.** And the “L2abs (Cpd-DMSO)” value (TANC2 NM_025185, 3 μM)?
**A.** 4.47

**Q.** What about the “abs (Cpd-DMSO)” value (TANC2 NM_025185, 3 μM) of the same molecule?
**A.** 22 iFPM

**Q.** What about the “amp FC (x + 1)” value (TANC2 NM_025185, 3 μM) of the same molecule?
**A.** 1.01

**Q.** And the “ave Cpd” value (TANC2 NM_025185, 3 μM)?
**A.** 1812 iFPM

**Q.** And the “FC (x + 1)” value (TARBP1 NM_005646, 3 μM)?
**A.** 0.1192

**Q.** What about the “L2FC (x + 1)” value (TARBP1 NM_005646, 3 μM) of the same molecule?
**A.** −3.068

**Q.** And the “L2abs (Cpd-DMSO)” value (TARBP1 NM_005646, 3 μM)?
**A.** 8.52

**Q.** What about the “abs (Cpd-DMSO)” value (TARBP1 NM_005646, 3 μM) of the same molecule?
**A.** 367 iFPM

**Q.** And the “amp FC (x + 1)” value (TARBP1 NM_005646, 3 μM)?
**A.** 8.39

**Q.** And the “ave Cpd” value (TARBP1 NM_005646, 3 μM)?
**A.** 49 iFPM

**Q.** What about the “FC (x + 1)” value (TBC1D15 AK307922, 3 μM) of the same molecule?
**A.** 1.0252

**Q.** What about the “L2FC (x + 1)” value (TBC1D15 AK307922, 3 μM) of the same molecule?
**A.** 0.036

**Q.** What about the “L2abs (Cpd-DMSO)” value (TBC1D15 AK307922, 3 μM) of the same molecule?
**A.** 2.70

**Q.** And the “abs (Cpd-DMSO)” value (TBC1D15 AK307922, 3 μM)?
**A.** 6 iFPM

**Q.** And the “amp FC (x + 1)” value (TBC1D15 AK307922, 3 μM)?
**A.** 1.03

**Q.** And the “ave Cpd” value (TBC1D15 AK307922, 3 μM)?
**A.** 263 iFPM

**Q.** And the “FC (x + 1)” value (TBC1D15 NM_022771, 3 μM)?
**A.** 1.1954

**Q.** And the “L2FC (x + 1)” value (TBC1D15 NM_022771, 3 μM)?
**A.** 0.257

**Q.** And the “L2abs (Cpd-DMSO)” value (TBC1D15 NM_022771, 3 μM)?
**A.** 3.99

**Q.** What about the “abs (Cpd-DMSO)” value (TBC1D15 NM_022771, 3 μM) of the same molecule?
**A.** 16 iFPM

**Q.** And the “amp FC (x + 1)” value (TBC1D15 NM_022771, 3 μM)?
**A.** 1.20

**Q.** What about the “ave Cpd” value (TBC1D15 NM_022771, 3 μM) of the same molecule?
**A.** 96 iFPM

**Q.** And the “FC (x + 1)” value (TBC1D15 NM_001146213, 3 μM)?
**A.** 1.4119

**Q.** And the “L2FC (x + 1)” value (TBC1D15 NM_001146213, 3 μM)?
**A.** 0.498

**Q.** And the “L2abs (Cpd-DMSO)” value (TBC1D15 NM_001146213, 3 μM)?
**A.** 8.07

**Q.** What about the “abs (Cpd-DMSO)” value (TBC1D15 NM_001146213, 3 μM) of the same molecule?
**A.** 270 iFPM

**Q.** And the “amp FC (x + 1)” value (TBC1D15 NM_001146213, 3 μM)?
**A.** 1.41

**Q.** And the “ave Cpd” value (TBC1D15 NM_001146213, 3 μM)?
**A.** 923 iFPM

**Q.** And the “FC (x + 1)” value (TBC1D15 NM_001146214, 3 μM)?
**A.** 1.0153

**Q.** What about the “L2FC (x + 1)” value (TBC1D15 NM_001146214, 3 μM) of the same molecule?
**A.** 0.022

**Q.** What about the “L2abs (Cpd-DMSO)” value (TBC1D15 NM_001146214, 3 μM) of the same molecule?
**A.** −0.65

**Q.** And the “abs (Cpd-DMSO)” value (TBC1D15 NM_001146214, 3 μM)?
**A.** 1 iFPM

**Q.** What about the “amp FC (x + 1)” value (TBC1D15 NM_001146214, 3 μM) of the same molecule?
**A.** 1.02

**Q.** And the “ave Cpd” value (TBC1D15 NM_001146214, 3 μM)?
**A.** 41 iFPM

**Q.** What about the “FC (x + 1)” value (TBC1D15 NR_027449, 3 μM) of the same molecule?
**A.** 0.1625
